A short description of series [1]: RSV long CPE assay (cytopathic effect assay), CC50 toxicity in vitro. Type of series: cell-based. The conditions noted are these: human, Hep2 cells, CCK-8 readout, top concentration 100 μM. A general note: Cytopathic effects are the visible damage that an infection or toxin causes in cultured cells.
Series [2] has as its system RSV respiratory tract virus (A long strain). As to the kind of experiment: RSV long CPE assay (cytopathic effect assay), EC50. To be noted: human respiratory syncytial virus, HEp-2, 120 h; Hep2 cells infected with RSV A long strain, 5 days, CCK-8 readout. In kind it is cell-based.

On to `CC(C)OC(=O)N1CC2(C1)C(=O)N(Cc1nc3c(n1CCCC(F)(F)F)C(O)CCC3)c1ccccc12` (stereo not shown) [Embodiment 109, Isopropyl 1′-((7-hydroxy-1-(4,4,4-trifluorobutyl)-4,5,6,7-tetrahydro-1H-benzo[d]imidazol-2-yl)methyl)-2′-oxospiro[azetidine-3,3′-indoline]-1-carboxylate], for which, in series [1], the CC50 at 5 days was greater than 100000 nM. This compound returned an EC50 in series [2] of 100 to 1000 nM.

Turning to `CCOC(=O)N1CC2(C1)C(=O)N(Cc1nc3c(n1CCCC(F)(F)F)CCCC3C)c1ccccc12` (stereo not shown) [Embodiment 110, Ethyl 1′-((4-methyl-1-(4,4,4-trifluorobutyl)-4,5,6,7-tetrahydro-1H-benzo[d]imidazol-2-yl)methyl)-2′-oxospiro[azetidine-3,3′-indoline]-1-carboxylate], the CC50 at 5 days in series [1] is greater than 100000 nM. The compound further came in with an EC50 in series [2] of 100 to 1000 nM.

One may read the CC50 as the concentration at which the toxic effect on the cells reaches its halfway point. A high value points to lower toxicity to the cells. One may read the EC50 as the concentration that produces a half-maximal response. Read a high EC50 as a need for much substance.

The values are drawn from patent US9850251B2, “Imidazole derivative used as antiviral agent and use therof in preparation of medicament” (priority 2013, dated 2017).
